{"source": "patent US11944635B1", "about": "“Compositions and methods for treating epilepsy” (priority 2023, dated 2024)", "assay": "Hepatic markers (ALT, AST, ALP, GGT, total bilirubin) in the 5-week human study", "format": "in vivo", "conditions": "5 weeks, versus placebo", "description": "Each patient visited the laboratory 6 times in total. During each visit, a sample of venous blood was taken from forearm following an overnight fast and sample of urine was obtained. All blood and urine samples were analyzed in the same certified institutional biochemical laboratory, using the standard operating procedures.\nHepatic (ALT, AST, ALP, GGT, and total bilirubin) markers were also measured.\nMoreover, these changes we <1 standard deviation and therefore viewed as not clinically meaningful. As noted earlier, >3 SD over normative values were classified as an AE.", "note": "“Also recorded” adds a separate entry of the source.", "data": [{"smiles": "C=C(C)[C@@H]1CCC(C)=C[C@H]1c1c(O)cc(CCCCC)cc1O", "note": "[CBD, 2-[(1R,6R)-6-Isopropenyl-3-methylcyclohex-2-en-1-yl]-5-pentylbenzene-1,3-diol]", "values": [{"measurement": "plasma alanine transaminase (ALT)", "result": "remained effectively unchanged"}, {"measurement": "plasma alkaline phosphatase (ALP)", "result": "remained effectively unchanged"}, {"measurement": "plasma total bilirubin", "result": "remained effectively unchanged"}, {"measurement": "plasma gamma-glutamyl transferase (GGT)", "setting": "main effect of dose P=0.038", "result": "slightly higher; also recorded: remained effectively unchanged"}, {"measurement": "plasma aspartate transaminase (AST)", "setting": "main effect of dose P=0.047", "result": "higher in the placebo condition; also recorded: remained effectively unchanged"}]}]}
